From the SangsterLogP compilation

Test: method code SF, from DOI: 10.1080/00021369.1987.10868331

With CNc1nc(NC)nc(SC(F)F)n1 the logP was 2.31.

CCCCCNc1nc(NC)nc(SC(F)F)n1 showed a logP of 4.42.

CCCCNc1nc(NCC)nc(SC(F)F)n1 gave a logP of 4.51.

With CC(C)Nc1nc(NC(C)C)nc(SC(F)F)n1 the logP was 4.25.

In the case of CCCCNc1nc(NC)nc(SC(F)F)n1, the logP is reported as 3.7.

For CCCCCNc1nc(NCC)nc(SC(F)F)n1, the logP was 4.71.

With CCCNc1nc(NC)nc(SC(F)F)n1 the logP was 3.28.

Molecule CCNc1nc(N)nc(SC(F)F)n1 has a logP of 2.29.

CCNc1nc(NCC)nc(SC(F)F)n1 showed a logP of 3.28.

Molecule CNc1nc(NC(C)(C)C)nc(SC(F)F)n1 has a logP of 3.91.

Work on CCCNc1nc(NCCC)nc(SC(F)F)n1 yielded a logP of 4.45.

CCCCNc1nc(NC(C)C)nc(SC(F)F)n1 showed a logP of 4.75.

For CCCCCCCCNc1nc(NCC)nc(SC(F)F)n1, the logP was 6.61.

CCCNc1nc(NCC)nc(SC(F)F)n1 gave a logP of 3.8.

For CCCNc1nc(NC(C)C)nc(SC(F)F)n1, the logP was 4.23.

In the case of CCNc1nc(NC)nc(SC(F)F)n1, the logP is reported as 2.68.

With CCNc1nc(NC(C)C)nc(SC(F)F)n1 the logP was 3.7.

In the case of CCNc1nc(NC(C)(C)C)nc(SC(F)F)n1, the logP is reported as 4.57.

In the case of CCC(C)Nc1nc(NC)nc(SC(F)F)n1 (stereo unspecified), the logP is reported as 3.69.

Molecule CCC(C)Nc1nc(NC(C)C)nc(SC(F)F)n1 (stereo unspecified) has a logP of 4.55.

Work on Nc1nc(N)nc(SC(F)F)n1 yielded a logP of 1.21.

Molecule CC(C)Nc1nc(NC(C)(C)C)nc(SC(F)F)n1 has a logP of 4.7.

For CNc1nc(NC(C)C)nc(SC(F)F)n1, the logP was 3.27.

For CCCCCCNc1nc(NCC)nc(SC(F)F)n1, the logP was 5.53.

Work on CCNc1nc(NC(C)CC)nc(SC(F)F)n1 (stereo unspecified) yielded a logP of 4.23.

CNc1nc(N)nc(SC(F)F)n1 showed a logP of 1.75.
